Entries after “also recorded” stand apart in the source; their conditions may differ.
Experiments:
HepG2-DR cells = test: Cell cycle distribution by flow cytometry (doxorubicin-induced G2/M arrest), HepG2-DR; format: cell-based, human; details: HepG2-DR; for Cell cycle distribution, G0/G1 / Cell cycle distribution, G2/M / Cell cycle distribution, S / Cell cycle distribution, SubG1: 48 h; for Concentration of test compound that reduced the effective doxorubicin concentration (G2/M arrest) from 50 to 1 μM: combination with doxorubicin
Description: 1.2 Instruments: FACSCAN flow cytometry (Becton Dickinson Immunocytometry Systems, San Jose, Calif.), the obtained data were analyzed using the software of Macintosh CellQuest.
1.3 Cell lines: HepG2, HepG2-DR.
1.4 Drug treatment: HepG2 and HepG2-DR cells were respectively treated with each of cis-DMDCK, cis-DMDBK, trans-DMDCK, trans-DMDBK and doxorubicin for 48 hours, or treated respectively with the combination of doxorubicin and one of cis-DMDCK, cis-DMDBK, trans-DMDCK, trans-DMDBK for 48 hours.
1.5 Treatment and detection of sample cells: after washed twice by ice-cold PBS, the cells were fixed with 70% ethanol at −20° C. overnight. The fixed cells were washed by PBS once and resuspended in 1 mL of PBS containing 100 μg/mL RNAase A and incubated at 37° C. for 30 minutes. Finally, propidium iodide solution (final concentration is 40 μg/mL,) was added to bind with DNA and incubated at room temperature for 5-10 minutes. Cells were analyzed by FACSCAN flow cytometry immediately.

P-gp [1] = molecular target: P-gp (Homo sapiens, UniProt P08183); test: Hoechst 33342 efflux assay, HepG2-DR; format: cell-based; set-up: KB V1, HepG2-DR and K562-DR cell expressed P-gp at high level when compared with parental drug sensitive cells thereof; endogenous in cells; host or cells: HepG2-DR (doxorubicin-maintained multidrug resistant subline of HepG2)
Sequence of P-gp (Homo sapiens, UniProt P08183) (P08183 whole entry): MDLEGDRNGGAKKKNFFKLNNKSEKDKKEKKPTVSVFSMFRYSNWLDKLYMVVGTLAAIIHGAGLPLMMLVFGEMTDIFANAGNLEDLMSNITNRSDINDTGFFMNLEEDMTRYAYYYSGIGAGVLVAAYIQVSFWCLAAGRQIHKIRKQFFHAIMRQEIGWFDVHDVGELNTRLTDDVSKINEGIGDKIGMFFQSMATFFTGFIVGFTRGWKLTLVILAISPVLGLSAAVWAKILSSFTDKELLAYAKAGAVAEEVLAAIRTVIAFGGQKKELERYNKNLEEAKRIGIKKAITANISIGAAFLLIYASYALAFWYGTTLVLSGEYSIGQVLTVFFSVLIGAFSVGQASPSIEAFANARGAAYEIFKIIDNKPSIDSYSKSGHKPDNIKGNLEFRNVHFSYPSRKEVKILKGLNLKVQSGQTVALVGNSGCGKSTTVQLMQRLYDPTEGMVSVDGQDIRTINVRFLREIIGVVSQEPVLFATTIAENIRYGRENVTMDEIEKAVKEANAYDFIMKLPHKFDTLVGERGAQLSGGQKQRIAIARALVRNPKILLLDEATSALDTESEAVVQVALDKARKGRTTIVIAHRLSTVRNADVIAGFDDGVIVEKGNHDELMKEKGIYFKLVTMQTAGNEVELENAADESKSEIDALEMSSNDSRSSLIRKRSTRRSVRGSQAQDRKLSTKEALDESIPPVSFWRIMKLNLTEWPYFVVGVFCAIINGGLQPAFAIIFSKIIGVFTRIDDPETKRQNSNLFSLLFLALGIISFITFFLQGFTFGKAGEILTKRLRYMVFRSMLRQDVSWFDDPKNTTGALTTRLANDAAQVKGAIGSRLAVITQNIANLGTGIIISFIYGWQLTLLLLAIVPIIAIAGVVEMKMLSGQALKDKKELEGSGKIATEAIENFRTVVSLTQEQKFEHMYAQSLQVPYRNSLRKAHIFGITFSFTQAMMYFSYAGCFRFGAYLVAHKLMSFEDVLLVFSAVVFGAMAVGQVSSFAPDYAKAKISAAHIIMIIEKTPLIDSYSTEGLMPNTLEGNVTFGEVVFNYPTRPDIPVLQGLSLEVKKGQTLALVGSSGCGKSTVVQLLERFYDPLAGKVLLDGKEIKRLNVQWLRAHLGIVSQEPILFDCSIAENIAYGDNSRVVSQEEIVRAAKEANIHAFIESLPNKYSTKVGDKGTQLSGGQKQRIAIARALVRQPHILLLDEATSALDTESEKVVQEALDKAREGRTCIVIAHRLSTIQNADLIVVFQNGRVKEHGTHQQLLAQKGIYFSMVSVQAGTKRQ
Description: Relative amount of intracellular H33342 (%)=100×(FS−F0)/F0
(Fs: cellular fluorescence intensity of H33342 in the presence of a testing drug; F0: cellular fluorescence intensity of H33342 in the absence of any P-gp modulator).
1.4 Hoechst 33342 transport test: HepG2-DR Cells (5×10^4 cells in 100 μL, medium per well) were seeded in 96-well plate and incubated overnight to permit cell attachment. The medium was replaced with fresh medium containing 20 μg/mL Hoechst 33342 and cells were incubated at 37° C. for 1 hour. Cells were then washed with 100 μL ice-cold PBS twice. New medium containing the test compound of various concentrations was added and cells were further incubated at 37° C. for 1 hour. Cells were washed with ice-cold PBS twice and cellular fluorescence intensity was measured at λex=365 nm (λem=460 nm) by a BMG FLUOstar OPTIMA Microplate Reader. Inhibitory effect of the test compound on Hoechst 33342 efflux was expressed as the percentage increase of retained Hoechst 33342 in cells.

K562-DR cells = test: MTT growth inhibition assay, K562-DR; format: cell-based, human; details: IC50 K562-DR / IC50 K562
Description: K562, K562-DR, HepG2, HepG2-DR were cultured in RPMI-1640 medium containing 10% fetal bovine serum and 100 U/mL, antibiotics. […] Drug test: […] New calorimetric cytotoxicity assay for anticancer-drug screening. […] Mosmann T. Rapid colorimetric assay for cellular growth and survival: application to proliferation and cytotoxicity assays. […] Gerlier D, Thomasset N. […] Each growth inhibition experiment must be repeated three times and results are expressed as mean±standard deviation (SD). Solvents and media were included as blank control. In MTT assay, cells are inoculated at 5000 cells/well and are incubated overnight. Drug treatment lasts for 68 h. MTT (5 mg/ml in PBS) is added to each well (1:10 dilution). […] Viable cell number is estimated by correlating to OD at 570 nm.

P-gp [2] = test: Immunoblotting analysis of P-gp expression, HepG2-DR; format: cell-based, human; details: 4 μM, 72 hours
Description: (§1) Immunoblotting analysis of P-gp expression: cells were treated with 4 μM of cis-DMDCK, 4 μM of cis-DMDBK, 4 μM of trans-DMDCK, or 4 μM of trans-DMDBK for 72 hours. Treated cells were collected and mixed well in ice-cold lysis buffer (50 mM Tris pH7.4, 100 mM NaCl, 2 mM EDTA, 1% sodium deoxycholate, 0.1% SDS, 1% triton X-100, 2 mM PMSF, 1% aprotinin) for 30 minutes and then centrifuged to get the total protein. Protein concentration was determined using Bradford assay. In this experiment, 50 μg total protein was separated by 8% SDS-PAGE and electro-transferred to nitrocellulose membranes. The membrane was blocked by 5% skim milk/0.1% Tween-20/TBS (10 mM Tris pH7.5, 100 mM NaCl), and then incubated with anti-P-pg antibody for 1 hour, followed by horseradish-peroxidase-conjugated secondary antibody for another 1 hour. Protein bands were detected by the ECL method.

P-gp [3] = test: Immunoblotting analysis of P-gp expression, K562-DR; format: cell-based, human; details: 4 μM, 72 hours
Description: as §1

[4] = 1 μM doxorubicin + 1 μM test compound
[5] = 1 μM doxorubicin + 2 μM test compound
[6] = 1 μM doxorubicin + 4 μM test compound
[7] = 1 μM doxorubicin + 0.5 μM test compound

Structure (SMILES)	Cell cycle distribution, G0/G1 (HepG2-DR cells; [4]) [%]	Cell cycle distribution, G2/M (HepG2-DR cells; [4]) [%]	Cell cycle distribution, S (HepG2-DR cells; [4]) [%]	Cell cycle distribution, SubG1 (HepG2-DR cells; [4]) [%]	Cell cycle distribution, G0/G1 (HepG2-DR cells; [5]) [%]	Cell cycle distribution, G2/M (HepG2-DR cells; [5]) [%]	Cell cycle distribution, S (HepG2-DR cells; [5]) [%]	Cell cycle distribution, SubG1 (HepG2-DR cells; [5]) [%]	Cell cycle distribution, G0/G1 (HepG2-DR cells; [6]) [%]	Cell cycle distribution, G2/M (HepG2-DR cells; [6]) [%]	Cell cycle distribution, S (HepG2-DR cells; [6]) [%]	Effect on cell cycle by itself (HepG2-DR cells; 4 μM alone)	Cell cycle distribution, G0/G1 (HepG2-DR cells; 4 μM alone) [%]	Cell cycle distribution, G2/M (HepG2-DR cells; 4 μM alone) [%]	Cell cycle distribution, S (HepG2-DR cells; 4 μM alone) [%]	Cell cycle distribution, SubG1 (HepG2-DR cells; 4 μM alone) [%]	Concentration of test compound that reduced the effective doxorubicin concentration (G2/M arrest) from 50 to 1 μM (HepG2-DR cells) [µM]	Resistant ratio (K562-DR cells)	Change in P-gp (MDR1) expression level (P-gp [2])	Change in P-gp (MDR1) expression level (P-gp [3])	also measured
COc1ccc(/C=C/C(=O)O[C@@H]2[C@@H](OC(=O)/C=C/c3ccc(OC)c(OC)c3)c3c(ccc4ccc(=O)oc34)OC2(C)C)cc1OC (racemic) [trans-DMDCK, (±)-3′-O,4′-O-bis(3,4-dimethoxycinnamoyl)-trans-khellactone]	34.29 ± 0.21	48.46 ± 2.52	8.80 ± 3.64	3.94 ± 0.77	21.21 ± 1.48	64.06 ± 3.56	5.79 ± 4.05	6.55 ± 0.12	6.03 ± 0.91	79.52 ± 0.66	5.70 ± 4.20	no effect	47.46 ± 0.55	33.42 ± 1.98	7.97 ± 1.05	2.07 ± 0.06	4	1.42	no detectable alteration; also recorded: not observed	no detectable alteration; also recorded: not observed	Cell cycle distribution, SubG1 (HepG2-DR cells; [6]): 4.29 ± 1.99%; Highest increase of cellular Hoechst 33342 fluorescence (P-gp [1]; 20 μM): about 150%
COc1ccc(/C=C/C(=O)O[C@@H]2c3c(ccc4ccc(=O)oc34)OC(C)(C)[C@@H]2OC(=O)/C=C/c2ccc(OC)c(OC)c2)cc1OC (racemic) [cis-DMDCK, (±)-3′-O,4′-O-bis(3,4-dimethoxycinnamoyl)-cis-khellactone]	4.39 ± 1.50	81.42 ± 6.02	5.36 ± 3.13	5.59 ± 4.35	4.51 ± 0.45	77.12 ± 3.36	8.87 ± 4.04	6.40 ± 5.54				no effect	52.10 ± 0.61	33.20 ± 2.05	8.38 ± 4.24	2.25 ± 0.51	1	1.29	no detectable alteration; also recorded: not observed	no detectable alteration; also recorded: not observed	Cell cycle distribution, G0/G1 (HepG2-DR cells; [7]): 8.46 ± 1.63%; Cell cycle distribution, G2/M (HepG2-DR cells; [7]): 79.79 ± 4.56%; Cell cycle distribution, S (HepG2-DR cells; [7]): 6.52 ± 1.76%; Cell cycle distribution, SubG1 (HepG2-DR cells; [7]): 4.35 ± 0.59%; Highest increase of cellular Hoechst 33342 fluorescence (P-gp [1]; 5 μM): 200%
COc1ccc(C(=O)O[C@@H]2[C@@H](OC(=O)c3ccc(OC)c(OC)c3)c3c(ccc4ccc(=O)oc34)OC2(C)C)cc1OC (racemic) [trans-DMDBK, (±)-3′-O,4′-O-bis(3,4-dimethoxybenzoyl)-trans-khellactone]	34.60 ± 2.58	49.53 ± 0.69	7.61 ± 3.69	3.31 ± 0.89	17.56 ± 2.20	67.89 ± 1.19	7.03 ± 2.34	5.30 ± 2.52	5.37 ± 1.06	81.56 ± 2.62	4.71 ± 3.62	no effect	49.57 ± 0.15	34.41 ± 3.70	6.17 ± 1.55	1.33 ± 0.24	4	1.50	no detectable alteration; also recorded: not observed	no detectable alteration; also recorded: not observed	Cell cycle distribution, SubG1 (HepG2-DR cells; [6]): 5.11 ± 2.84%; Highest increase of cellular Hoechst 33342 fluorescence (P-gp [1]; 20 μM): about 150%
COc1ccc(C(=O)O[C@@H]2c3c(ccc4ccc(=O)oc34)OC(C)(C)[C@@H]2OC(=O)c2ccc(OC)c(OC)c2)cc1OC (racemic) [cis-DMDBK, (±)-3′-O,4′-O-bis(3,4-dimethoxybenzoyl)-cis-khellactone]	13.52 ± 1.36	73.03 ± 1.89	5.85 ± 3.09	4.08 ± 0.81	3.74 ± 0.76	79.01 ± 6.01	6.86 ± 2.57	7.13 ± 6.57				no effect	52.36 ± 0.98	34.36 ± 0.42	7.66 ± 3.22	2.27 ± 0.49	2	0.91	no detectable alteration; also recorded: not observed	no detectable alteration; also recorded: not observed	Cell cycle distribution, G0/G1 (HepG2-DR cells; [7]): 35.82 ± 2.26%; Cell cycle distribution, G2/M (HepG2-DR cells; [7]): 52.79 ± 5.64%; Cell cycle distribution, S (HepG2-DR cells; [7]): 6.44 ± 0.77%; Cell cycle distribution, SubG1 (HepG2-DR cells; [7]): 2.92 ± 1.09%; Highest increase of cellular Hoechst 33342 fluorescence (P-gp [1]; 10 μM): 200%
